Experimental data published in paper PMC10281360 (Microbial Biotechnology, 2023).

System: rAbf43A
Experiment: HPLC of released arabinose, Michaelis-Menten non-linear regression
Format: biochemical, metagenome: lignocellulolytic bacterial consortium EMSD5
Conditions: 0.05 M citric-Na2HPO4 pH 5.0, 40 °C, 10 min; AXHd3 activity; 0-40.0 mM substrate

- Km: 8.03 mM
Compound: OC[C@@H]1O[C@@H](O[C@@H]2[C@@H](O[C@@H]3O[C@@H](CO)[C@H](O)[C@H]3O)[C@H](O[C@@H]3CO[C@@H](O[C@@H]4COC(O)[C@H](O)[C@H]4O)[C@H](O)[C@H]3O)OC[C@H]2O)[C@H](O)[C@H]1O (stereo partly drawn) [A2,3XX, 2^3,3^3‐di‐α‐L‐arabinofuranosyl‐xylotriose]
